The values that follow come from ChEMBL document CHEMBL1201862, “PubChem BioAssay data set” (2004).

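These data come from cells grown in 96-well plates and exposed to compound for 48 hours at five concentrations. GI50 marks 50% less growth.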 Activity calls are given as the source filed them. Rule as the data show it: active = GI50 up to about 1.1 µM and inactive = higher.

Among the test systems are LOX IMVI; MDA-MB-435; EKVX; 786-0; HOP-62; KM12; SF-539; A549; COLO 205; ACHN; MCF7; SNB-75; Hs-578T; SN12C; SF-295; HL-60; NCI-H522; OVCAR-8; MDA-N; MOLT-4.
Common to all, as to experiment: NCI tumour cell line growth inhibition, 48 h

`[O-][S+](Cc1ccccc1)c1ccccc1Cn1cccc1` (configuration not stated): the GI50 is > 100 µM (inactive) in the assay on LOX IMVI; 42.6 µM (inactive) in the assay on MDA-MB-435; > 100 µM (inactive) in the assay on EKVX; > 100 µM (inactive) in the assay on 786-0; > 100 µM (inactive) with HOP-62; > 100 µM (inactive) in the assay with KM12. Moreover, the GI50 with SF-539 is > 100 µM (inactive); in the assay on A549 it was > 100 µM (inactive); in the assay on COLO 205, > 100 µM (inactive); in the assay on ACHN it was > 100 µM (inactive); in the assay with MCF7, > 100 µM (inactive); with SNB-75 it was 74.3 µM (inactive). Further, the GI50 is > 100 µM (inactive) in the assay on Hs-578T, > 100 µM (inactive) in the assay with SN12C, 60.4 µM (inactive) in the assay on SF-295 and > 100 µM (inactive) in the assay with HL-60.
Take `COc1ccc(CCNC(=O)c2ccccc2C2c3ccc(OCc4ccccc4)cc3Oc3cc(OCc4ccccc4)ccc32)cc1OC`: the GI50 in the assay with LOX IMVI, in the assay with MDA-MB-435, in the assay with EKVX, in the assay on 786-0, with HOP-62 and in the assay on NCI-H522 was > 100 µM (inactive) each time. In addition, the GI50 in the assay with OVCAR-8, in the assay on MDA-N, in the assay with KM12, in the assay with MOLT-4, with A549 and in the assay on COLO 205 was > 100 µM (inactive) each time. Moreover, the GI50 in the assay with ACHN was > 100 µM (inactive); with MCF7 it was > 100 µM (inactive); in the assay on SN12C, > 100 µM (inactive); with SF-295, > 100 µM (inactive); in the assay with HL-60 it was 0.668 µM (active).
For `CC(=O)OCc1ccc2c(c1)C(O)NC(=O)O2` (configuration not stated), the GI50 was 47.2 µM (inactive) in the assay on LOX IMVI; > 100 µM (inactive) in the assay with MDA-MB-435; > 100 µM (inactive) in the assay with EKVX; > 100 µM (inactive) in the assay on 786-0; > 100 µM (inactive) with HOP-62; 68.7 µM (inactive) with NCI-H522. The GI50 with OVCAR-8 is > 100 µM (inactive); in the assay with KM12, 88.5 µM (inactive); with SF-539, > 100 µM (inactive); in the assay with MOLT-4 it was 12.8 µM (inactive); in the assay with A549 it was > 100 µM (inactive); in the assay with COLO 205, > 100 µM (inactive). For the same molecule, the GI50 in the assay with ACHN was > 100 µM (inactive); with MCF7, 78.9 µM (inactive); in the assay on SNB-75, > 100 µM (inactive); in the assay with Hs-578T, 18.7 µM (inactive); in the assay with SN12C, 50.7 µM (inactive); with SF-295, > 100 µM (inactive). In addition, the GI50 in the assay with HL-60 was > 100 µM (inactive).
`CCCC(=O)OC1C(CO)OC(n2cc(F)c(=O)[nH]c2=O)C1F` (configuration not stated): the GI50 in the assay on LOX IMVI was > 100 µM (inactive); in the assay with MDA-MB-435, 59.4 µM (inactive); with EKVX, 67 µM (inactive); in the assay with 786-0, 38.5 µM (inactive); in the assay with HOP-62, 4.5 µM (inactive); in the assay on NCI-H522, > 100 µM (inactive). Also, the GI50 is 72.1 µM (inactive) in the assay with OVCAR-8; > 100 µM (inactive) in the assay on KM12; 1.67 µM (inactive) in the assay on SF-539; > 100 µM (inactive) in the assay on MOLT-4; > 100 µM (inactive) in the assay with A549; > 100 µM (inactive) in the assay on COLO 205. Besides, the GI50 is 44.1 µM (inactive) in the assay on ACHN; 0.604 µM (active) in the assay with MCF7; 5.86 µM (inactive) in the assay on SNB-75; 53.7 µM (inactive) in the assay with Hs-578T; 15.4 µM (inactive) in the assay on SN12C; 82 µM (inactive) in the assay on SF-295. Further, in the assay with HL-60, the GI50 was 80.5 µM (inactive).
With `O=C(O)C1(C(=O)O)CC1(C(=O)O)C(=O)O`, the GI50 with LOX IMVI, with EKVX, with 786-0, in the assay on HOP-62, in the assay on NCI-H522 and with OVCAR-8 was > 100 µM (inactive) in each case. Moreover, the GI50 in the assay on KM12, in the assay on SF-539, in the assay on MOLT-4, in the assay with A549, in the assay with COLO 205 and with ACHN was > 100 µM (inactive) in each case. In addition, the GI50 in the assay with MCF7, with SNB-75, with Hs-578T, in the assay on SN12C, with SF-295 and in the assay on HL-60 was > 100 µM (inactive) in each case.
In the case of `Cc1c(NC(=O)CCCl)c(=O)oc2c(C)c3occc(=O)c3cc12`, the GI50 in the assay with EKVX is > 100 µM (inactive); in the assay on 786-0, > 100 µM (inactive); with HOP-62, > 100 µM (inactive); with OVCAR-8, > 100 µM (inactive); with MDA-N, 47.9 µM (inactive); with KM12 it was > 100 µM (inactive). Further, the GI50 with MOLT-4 is 76.9 µM (inactive); in the assay on A549, > 100 µM (inactive); in the assay with COLO 205, > 100 µM (inactive); with ACHN, 45.5 µM (inactive); in the assay with MCF7, 67.5 µM (inactive); with SNB-75, 42.2 µM (inactive). Besides, the GI50 in the assay with Hs-578T was 35.5 µM (inactive); in the assay on SF-295, 33 µM (inactive); in the assay with HL-60 it was 57.7 µM (inactive).
Take `N/N=C(\N)SCCCCCCCCCCS/C(N)=N/N`: the GI50 in the assay with LOX IMVI is 11.5 µM (inactive); in the assay with MDA-MB-435 it was 32.7 µM (inactive); in the assay with EKVX, 31.1 µM (inactive); in the assay with 786-0, 31.5 µM (inactive); with HOP-62, 40.5 µM (inactive); in the assay with NCI-H522, 17.1 µM (inactive). In addition, the GI50 in the assay on OVCAR-8 was 16.8 µM (inactive); in the assay on KM12, 20 µM (inactive); in the assay with SF-539 it was 29.6 µM (inactive); with A549, 18 µM (inactive); in the assay with COLO 205, 14.6 µM (inactive); with ACHN it was 20.7 µM (inactive). Moreover, the GI50 in the assay with MCF7 is 23.6 µM (inactive); in the assay with Hs-578T it was 30.8 µM (inactive); in the assay on SN12C, 34.9 µM (inactive); with SF-295, 23 µM (inactive); in the assay on HL-60 it was 17.3 µM (inactive).
Regarding `Clc1ccc2c(SCC3CO3)c3ccccc3nc2c1` (configuration not stated), the GI50 was 2.25 µM (inactive) in the assay with LOX IMVI; 3.15 µM (inactive) in the assay on MDA-MB-435; 4.9 µM (inactive) in the assay on EKVX; 1.81 µM (inactive) in the assay on 786-0; 6.25 µM (inactive) with HOP-62; 2.08 µM (inactive) with NCI-H522. For the same molecule, the GI50 in the assay with OVCAR-8 was 2.19 µM (inactive); with KM12, 1.7 µM (inactive); in the assay with SF-539 it was 2.13 µM (inactive); in the assay with MOLT-4 it was 1.85 µM (inactive); in the assay on A549, 7.31 µM (inactive); in the assay on COLO 205, 3.02 µM (inactive). Moreover, the GI50 was 2.06 µM (inactive) in the assay with ACHN; 1.47 µM (inactive) in the assay with MCF7; 9.55 µM (inactive) with SNB-75; 2.72 µM (inactive) in the assay on Hs-578T; 2.02 µM (inactive) in the assay on SN12C; 16.5 µM (inactive) in the assay with SF-295. For the same molecule, the GI50 with HL-60 was 1.04 µM (active).
Turning to `Cc1cccc(/N=N/C(=O)NNc2cccc(C)c2C)c1C`, the GI50 in the assay on LOX IMVI was 25.8 µM (inactive); in the assay on MDA-MB-435 it was 26.1 µM (inactive); in the assay with 786-0 it was 35.2 µM (inactive); in the assay with HOP-62 it was 20.7 µM (inactive); with NCI-H522 it was 24.7 µM (inactive); in the assay on OVCAR-8 it was 33.3 µM (inactive). For the same molecule, the GI50 in the assay with MDA-N was 36.3 µM (inactive); with MOLT-4, > 10 µM (inactive); with A549 it was 31.2 µM (inactive); in the assay on ACHN, 41.7 µM (inactive); in the assay on SNB-75, 54.3 µM (inactive); in the assay on SN12C it was 53.1 µM (inactive). For the same molecule, the GI50 with HL-60 was 24.5 µM (inactive).
In the case of `CC(=O)Oc1ccc(OC(Oc2ccccc2)c2ccccc2)cc1` (configuration not stated), the GI50 was 21.6 µM (inactive) in the assay with LOX IMVI; 32.4 µM (inactive) in the assay with MDA-MB-435; 41.6 µM (inactive) with EKVX; 23.8 µM (inactive) with 786-0; 36.2 µM (inactive) in the assay on HOP-62; 42.6 µM (inactive) in the assay with NCI-H522. Moreover, the GI50 with OVCAR-8 was 37.9 µM (inactive); with MDA-N it was 21.3 µM (inactive); in the assay on KM12 it was 23.2 µM (inactive); in the assay with SF-539, 23.1 µM (inactive); in the assay with MOLT-4, 34 µM (inactive); with A549, 37.5 µM (inactive). For the same molecule, the GI50 was 40.7 µM (inactive) with COLO 205; 25.2 µM (inactive) with ACHN; 35.4 µM (inactive) with MCF7; 10.4 µM (inactive) in the assay on SNB-75; 15 µM (inactive) with SN12C; 29.6 µM (inactive) in the assay with SF-295. For the same molecule, the GI50 in the assay with HL-60 is 12.6 µM (inactive).
In the case of `O=C1C=C/C(=N/c2ccccc2)c2ccccc21`, the GI50 is 4.18 µM (inactive) in the assay with LOX IMVI; 1.84 µM (inactive) in the assay with MDA-MB-435; 2.06 µM (inactive) in the assay with EKVX; 12.3 µM (inactive) with 786-0; 11.2 µM (inactive) in the assay on HOP-62; 10.2 µM (inactive) in the assay with NCI-H522. Further, the GI50 was 11.3 µM (inactive) with OVCAR-8; 11.4 µM (inactive) in the assay on KM12; 15.1 µM (inactive) in the assay on SF-539; 5.41 µM (inactive) in the assay on MOLT-4; 7.38 µM (inactive) in the assay with A549; 7.03 µM (inactive) in the assay with COLO 205. Besides, the GI50 with ACHN was 14.4 µM (inactive); with MCF7, 5.74 µM (inactive); with SNB-75 it was 6.53 µM (inactive); with Hs-578T it was 3.74 µM (inactive); in the assay on SN12C, 12.8 µM (inactive); in the assay on SF-295 it was 7.4 µM (inactive). Further, the GI50 with HL-60 is 4.89 µM (inactive).
For the molecule `O=c1c(C(c2ccc(-c3ccccc3)cc2)c2c(O)oc3ccccc3c2=O)c(O)oc2ccccc12`, the GI50 in the assay on LOX IMVI was 19.1 µM (inactive); in the assay with MDA-MB-435 it was 22.8 µM (inactive); with EKVX it was 46.6 µM (inactive); with 786-0, 26.9 µM (inactive); in the assay with HOP-62, 24.1 µM (inactive); with NCI-H522, 24 µM (inactive). For the same molecule, the GI50 was 17.2 µM (inactive) in the assay on OVCAR-8; 19.4 µM (inactive) with MDA-N; 19.6 µM (inactive) in the assay with KM12; 33.5 µM (inactive) with MOLT-4; 34.6 µM (inactive) in the assay on COLO 205; 26.7 µM (inactive) with ACHN. Further, the GI50 was 24.5 µM (inactive) in the assay with SNB-75, 24.4 µM (inactive) in the assay with Hs-578T, 16.7 µM (inactive) in the assay with SN12C and 23.2 µM (inactive) with HL-60.
